Results reported in patent publication US9790203B2, “Inhibitor compounds of phosphodiesterase type 10A” (ABBVIE DEUTSCHLAND GMBH & CO. KG, priority 2012, dated 2017).

Legend:
[1] = target: PDE10A (Homo sapiens (Human), UniProt Q9Y233); test: Measurement of PDE activity (HTRF cAMP kit, recombinant PDE); type: biochemical; conditions: recombinant PDE10, 20 nM cyclic nucleotide substrate, 60 minutes at 29 C
Method: The recombinant PDE proteins are used in in vitro enzymatic reaction for measurement of PDE activity. These recombinant proteins, including PDE10A (human, rat and mouse PDE10) and isoforms of PDEs 1, 3, 4, and 5, were purchased from commercial vendor BPS Bioscience. The enzymatic activity of PDEs was determined by cAMP measurement kit from CisBio (IBA) using HTRF technology.
The PDE enzymatic reaction was carried out in assay buffer (20 mM Tris-HCl pH7.5, 10 mM MgCl2, 0.1% bovine serum albumin) containing enzyme and substrate. […] The substrate cyclic nucleotide (cAMP or cGMP) concentration used in the assay was 20 nM for PDE10, and 100 nM for other PDEs. The inhibitory effect of compound was determined by incubating various concentration of inhibitor in the enzymatic assay. […] Next, the compound at varying concentration was mixed with PDE enzyme. The reaction was initiated by addition of cyclic nucleotide substrate, and incubated for 60 minutes at 29 C. The reaction was stopped by addition of lysis buffer from assay kit. The cAMP-d2 and anti-cAMP cryptate in the lysis buffer detected the level of cAMP left from the PDE hydrolysis reaction. […] Thus, IC50 value of inhibitor can be obtained by plotting inhibitor concentration against PDE activity at that concentration.

[2] = Microsomal half-life / microsomal clearance, rat liver microsomes; type: in vitro ADME; conditions: 0.5 μM test substance, 0.25 mg microsomal protein/ml, pH 7.4, 37° C.
Method: (§1) The metabolic stability of the compounds of the invention was determined in the following assay.
(§2) The test substances were incubated in a concentration of 0.5 μM as follows:
(§3) 0.5 μM test substance are preincubated together with liver microsomes from different species (from rat, human or other species) (0.25 mg of microsomal protein/ml) in 0.05 M potassium phosphate buffer of pH 7.4 in microtiter plates at 37° C. for 5 min. The reaction is started by adding NADPH (1 mg/mL). After 0, 5, 10, 15, 20 and 30 min, 50 μl aliquots are removed, and the reaction is immediately stopped and cooled with the same volume of acetonitrile. The samples are frozen until analyzed. The remaining concentration of undegraded test substance is determined by MSMS. The half-life (T1/2) is determined from the gradient of the signal of test substance/unit time plot, it being possible to calculate the half-life of the test substance, assuming first order kinetics, from the decrease in the concentration of the compound with time. The microsomal clearance (mCl) is calculated from mCl=ln 2/T1/2/(content of microsomal protein in mg/ml)×1000 [ml/min/mg] (modified from references: Di, The Society for Biomoleculur Screening, 2003, 453-462; Obach, DMD, 1999 vol 27. N 11, 1350-1359).

[3] = Microsomal half-life / microsomal clearance, human liver microsomes; type: in vitro ADME; conditions: 0.5 μM test substance, 0.25 mg microsomal protein/ml, pH 7.4, 37° C.
Method: as §1, §2, §3

Chain of PDE10A (Q9Y233 whole entry, species assumed, canonical isoform): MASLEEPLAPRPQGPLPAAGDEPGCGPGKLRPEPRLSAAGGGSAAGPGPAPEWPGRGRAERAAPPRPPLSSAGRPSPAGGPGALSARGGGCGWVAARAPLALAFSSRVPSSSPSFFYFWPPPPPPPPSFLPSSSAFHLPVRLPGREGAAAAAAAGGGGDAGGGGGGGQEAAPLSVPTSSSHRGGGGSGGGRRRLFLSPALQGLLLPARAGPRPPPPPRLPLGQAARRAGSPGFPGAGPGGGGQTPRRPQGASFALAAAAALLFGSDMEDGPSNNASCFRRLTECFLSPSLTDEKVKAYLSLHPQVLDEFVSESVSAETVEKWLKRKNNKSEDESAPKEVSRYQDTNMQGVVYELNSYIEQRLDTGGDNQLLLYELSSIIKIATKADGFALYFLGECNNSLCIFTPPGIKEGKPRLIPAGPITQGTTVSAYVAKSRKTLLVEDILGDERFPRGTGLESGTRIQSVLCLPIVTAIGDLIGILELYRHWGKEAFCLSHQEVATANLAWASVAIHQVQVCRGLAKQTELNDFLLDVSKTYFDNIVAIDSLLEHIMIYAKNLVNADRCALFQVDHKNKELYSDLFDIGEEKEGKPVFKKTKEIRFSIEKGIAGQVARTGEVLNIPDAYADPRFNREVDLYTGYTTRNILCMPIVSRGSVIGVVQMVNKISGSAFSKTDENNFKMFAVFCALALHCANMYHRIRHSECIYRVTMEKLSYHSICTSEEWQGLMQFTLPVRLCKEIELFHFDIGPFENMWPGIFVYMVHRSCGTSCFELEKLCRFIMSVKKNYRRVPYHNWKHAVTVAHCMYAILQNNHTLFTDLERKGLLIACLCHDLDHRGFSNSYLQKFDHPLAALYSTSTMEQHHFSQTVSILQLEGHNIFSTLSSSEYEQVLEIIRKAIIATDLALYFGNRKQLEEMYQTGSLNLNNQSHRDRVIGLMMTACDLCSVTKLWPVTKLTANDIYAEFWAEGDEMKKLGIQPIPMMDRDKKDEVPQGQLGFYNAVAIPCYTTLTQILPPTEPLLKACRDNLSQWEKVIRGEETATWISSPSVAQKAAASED

Row | IC50 [1] [nM] | Rat mCl [2] | Human mCl [3] | Compound
1 | < 100 | ++ (<100 μl min^−1 mg^−1) | ++ (<100 μl min^−1 mg^−1) | Cn1cc(-c2ccncc2)c(-c2ccc(C#Cc3ccccn3)cc2)n1 [Example 2, 2-((4-(1-methyl-4-(pyridin-4-yl)-1H-pyrazol-3-yl)phenyl)ethynyl)pyridine]
2 | < 100 | ++ (<100 μl min^−1 mg^−1) | ++ (<100 μl min^−1 mg^−1) | Cc1cccnc1C#Cc1ccc(-c2nn(C)cc2-c2ccncc2)cc1 [Example 6, 3-Methyl-2-((4-(1-methyl-4-(pyridin-4-yl)-1H-pyrazol-3-yl)phenyl)ethynyl)pyridine]
3 | < 100 | ++ (<100 μl min^−1 mg^−1) | ++ (<100 μl min^−1 mg^−1) | Cc1ccc(C#Cc2ccc(-c3nn(C)cc3-c3ccncc3)cc2)nc1 [Example 3, 5-methyl-2-((4-(1-methyl-4-(pyridin-4-yl)-1H-pyrazol-3-yl)phenyl)ethynyl)pyridine]
4 | < 100 | ++ (<100 μl min^−1 mg^−1) | ++ (<100 μl min^−1 mg^−1) | COc1cccnc1C#Cc1ccc(-c2nn(C)cc2-c2ccncc2)cc1 [Example 21, 3-methoxy-2-[2-[4-[1-methyl-4-(4-pyridyl)pyrazol-3-yl]phenyl]ethynyl]pyridine]
5 | < 100 | ++ (<100 μl min^−1 mg^−1) | ++ (<100 μl min^−1 mg^−1) | Cc1cccc(C#Cc2ccc(-c3nn(C)cc3-c3ccncc3)cc2)n1 [Example 9, 2-Methyl-6-((4-(1-methyl-4-(pyridin-4-yl)-1H-pyrazol-3-yl)phenyl)ethynyl)pyridine]
6 | < 100 | ++ (<100 μl min^−1 mg^−1) | ++ (<100 μl min^−1 mg^−1) | Cn1cc(-c2ccncc2)c(-c2ccc(C#Cc3ccc4cc[nH]c4n3)cc2)n1 [Example 15, 6-[2-[4-[1-methyl-4-(4-pyridyl)pyrazol-3-yl]phenyl]ethynyl]-1H-pyrrolo[2,3-b]pyridine]
7 | < 100 | ++ (<100 μl min^−1 mg^−1) | ++ (<100 μl min^−1 mg^−1) | Cn1cc(-c2ccncc2)c(-c2ccc(C#Cc3ccc(F)cn3)cc2)n1 [Example 5, 5-Fluoro-2-((4-(1-methyl-4-(pyridin-4-yl)-1H-pyrazol-3-yl)phenyl)ethynyl)pyridine]
8 | < 100 | ++ (<100 μl min^−1 mg^−1) | ++ (<100 μl min^−1 mg^−1) | Cc1ccnc(C#Cc2ccc(-c3nn(C)cc3-c3ccncc3)cc2)c1 [Example 8, 4-Methyl-2-((4-(1-methyl-4-(pyridin-4-yl)-1H-pyrazol-3-yl)phenyl)ethynyl)pyridine]

The next lines start with the molecule.

Row | Compound | IC50 [1] [nM] | Rat mCl [2] | Human mCl [3]
9 | Cc1cc(C#Cc2ccc(-c3nn(C)cc3-c3ccncc3)cc2)nc2ccccc12 [Example 16, 4-methyl-2-[2-[4-[1-methyl-4-(4-pyridyl)pyrazol-3-yl]phenyl]ethynyl]quinoline] | < 100 | ++ (<100 μl min^−1 mg^−1) | ++ (<100 μl min^−1 mg^−1)
10 | Cn1cc(-c2ccncc2)c(-c2ccc(C#Cc3ccc4ccccc4n3)cc2)n1 [Example 12, 2-((4-(1-methyl-4-(pyridin-4-yl)-1H-pyrazol-3-yl)phenyl)ethynyl)quinoline] | < 100 | ++ (<100 μl min^−1 mg^−1) | ++ (<100 μl min^−1 mg^−1)
11 | Cc1cccc(C#Cc2ccc(-c3nn(C)cc3-c3ccnn3C)cc2)n1.Cl [Example 27, 2-methyl-6-[2-[4-[1-methyl-4-(2-methylpyrazol-3-yl)pyrazol-3-yl]phenyl]ethynyl]-pyridine hydrochloride] | 100 to 200 | + (100-220 μl min^−1 mg^−1) | ++ (<100 μl min^−1 mg^−1)
12 | CCCn1cc(C#Cc2ccc(-c3nn(C)cc3-c3ccncc3)cc2)cn1 [Example 4, 4-(1-methyl-3-(4-((1-propyl-1H-pyrazol-4-yl)ethynyl)phenyl)-1H-pyrazole-4-yl)pyridine] |  |  | ++ (<100 μl min^−1 mg^−1)
13 | Cc1cccc(C#Cc2ccc(-c3nn(C)cc3-c3cccnc3)cc2)n1.O=C(O)C(F)(F)F [Example 29, 2-methyl-6-[2-[4-[1-methyl-4-(3-pyridyl)pyrazol-3-yl]phenyl]ethynyl]pyridine; 2,2,2-trifluoroacetic acid] | 200 to 500 | ++ (<100 μl min^−1 mg^−1) | ++ (<100 μl min^−1 mg^−1)
14 | Cc1cccc(C#Cc2ccc(-c3nn(C)cc3-c3cn[nH]c3)cc2)n1 [Example 24, 2-methyl-6-[2-[4-[1-methyl-4-(1H-pyrazol-4-yl)pyrazol-3-yl]phenyl]ethynyl]pyridine] | 200 to 500 | ++ (<100 μl min^−1 mg^−1) | ++ (<100 μl min^−1 mg^−1)
15 | COc1ccc(-c2cn(C)nc2-c2ccc(C#Cc3cccc(C)n3)cc2)cc1 [Example 31, 2-[2-[4-[4-(4-methoxyphenyl)-1-methyl-pyrazol-3-yl]phenyl]ethynyl]-6-methylpyridine; 2,2,2-trifluoroacetic acid] | 100 to 200 |  | 
16 | Cc1cccc(C#Cc2ccc(-c3c(-c4ccncc4)cnn3C)cc2)n1 [Example 26, 2-methyl-6-[2-[4-[2-methyl-4-(4-pyridyl)pyrazol-3-yl]phenyl]ethynyl]pyridine] | < 100 | ++ (<100 μl min^−1 mg^−1) | ++ (<100 μl min^−1 mg^−1)
17 | Cc1cccc(C#Cc2ccc(-c3c(-c4ccncc4)nc4n3CCC4)cc2)n1 [Example 23, 3-[4-[2-(6-methyl-2-pyridyl)ethynyl]phenyl]-2-(4-pyridyl)-6,7-dihydro-5H-pyrrolo[1,2-a]imidazole] | 100 to 200 | ++ (<100 μl min^−1 mg^−1) | ++ (<100 μl min^−1 mg^−1)
18 | Cc1cccc(C#Cc2c(-c3ccncc3)nc3n2CCC3)n1.O=C(O)C(F)(F)F [Example 19, 3-[2-(6-methyl-2-pyridyl)ethynyl]-2-(4-pyridyl)-6,7-dihydro-5H-pyrrolo[1,2-a]imidazole; 2,2,2-trifluoroacetic acid] |  | + (100-220 μl min^−1 mg^−1) | + (100-220 μl min^−1 mg^−1)
19 | Cn1cc(-c2ccncc2)c(-c2ccc(C#Cc3cnc4ccccc4n3)cc2)n1.O=C(O)C(F)(F)F [Example 18, 2-[2-[4-[1-methyl-4-(4-pyridyl)pyrazol-3-yl]phenyl]ethynyl]quinoxaline; 2,2,2-trifluoroacetic acid] | < 100 | ++ (<100 μl min^−1 mg^−1) | ++ (<100 μl min^−1 mg^−1)
20 | Cc1cccc(C#Cc2ccc(-c3nn(C)cc3-c3cncnc3)cc2)n1 [Example 25, 5-[1-methyl-3-[4-[2-(6-methyl-2-pyridyl)ethynyl]phenyl]pyrazol-4-yl]pyrimidine] | 100 to 200 |  | 
21 | Cn1cc(-c2ccncc2)c(-c2ccc(C#Cc3nccn3C)cc2)n1 [Example 7, 4-(1-methyl-3-(4-((1-methyl-1H-imidazol-2-yl)ethynyl)phenyl)-1H-pyrazole-4-yl)pyridine] | < 100 | ++ (<100 μl min^−1 mg^−1) | ++ (<100 μl min^−1 mg^−1)
22 | Cc1cccc(C#Cc2ccc(-c3nn(C)cc3-c3ccnnc3)cc2)n1 [Example 28, 4-[1-methyl-3-[4-[2-(6-methyl-2-pyridyl)ethynyl]phenyl]pyrazol-4-yl]pyridazine] | < 100 |  | 
23 | Cn1cc(-c2ccncc2)c(-c2ccc(C#Cc3cn4ccccc4n3)cc2)n1 [Example 14, 2-[2-[4-[1-methyl-4-(4-pyridyl)pyrazol-3-yl]phenyl]ethynyl]imidazo[1,2-a]pyridine] | < 100 | ++ (<100 μl min^−1 mg^−1) | ++ (<100 μl min^−1 mg^−1)
24 | COc1cc(-c2nn(C)cc2-c2ccncc2)ccc1C#Cc1cccc(C)n1.O=C(O)C(F)(F)F [Example 32, 2-[2-[2-methoxy-4-[1-methyl-4-(4-pyridyl)pyrazol-3-yl]phenyl]ethynyl]-6-methylpyridine; 2,2,2-trifluoroacetic acid] | < 100 | + (100-220 μl min^−1 mg^−1) | ++ (<100 μl min^−1 mg^−1)
25 | COc1cccc(C#Cc2ccc(-c3nn(C)cc3-c3ccncc3)cc2)n1.O=C(O)C(F)(F)F [Example 20, 2-methoxy-6-[2-[4-[1-methyl-4-(4-pyridyl)pyrazol-3-yl]phenyl]ethynyl]pyridine; 2,2,2-trifluoroacetic acid] | < 100 | ++ (<100 μl min^−1 mg^−1) | ++ (<100 μl min^−1 mg^−1)
